Laboratory results from patent publication US20230047208A1, “RNA Splicing Modulation” (The General Hospital Corporation, priority 2020, published 2023).

Test system: wildtype (WT) human fibroblast cell lines
Assay: Transcriptome-wide splicing by RNA sequencing (RNASeq), exon triplet PSI change;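 on Effect: six WT fibroblast lines treated seven days versus DMSO vehicle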;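 on T-PSI: T-PSI is average treated PSI after seven days of treatment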
Assay type: cell-based
Parameters: key to Effect: Exclusion; Inclusion; Unchanged
From the text: FIG. 2A provides a representation of an exon triplet. Exon U is upstream of Exon X, which is upstream of Exon D. R1, R2 and R3 represent RNA sequencing (RNASeq) reads spanning the regions between two adjacent exons. UI1, I1X, XI2 and I2D are four regions flanking the four splice sites of the exon-triplet. Each flanking region consists of 25 exonic base pairs and 75 intronic base pairs.
FIG. 2B provides a volcano plot showing the ψ (PSI: Percent Spliced-In) changes in splicing after treatment with Compound (I). Each dot represents one of the 161,097 expressed exon triplets in human fibroblasts. The x axis represents the ψ changes after treatment and the y axis represents the False Discovery Rate (FDR) (log 10 transformed). […] The horizontal dashed line indicates an FDR of 0.1. The dots on the right side of the right vertical dashed line and above the horizontal dashed line represent the exon-triplets with an increase for Exon X inclusion (Δψ≥0.1 and FDR<0.1) while the dots on left side of the left vertical dashed line and above the horizontal dashed line represent an increase for Exon X exclusion (Δψ≤−0.1 and FDR<0.1). Black dots in-between the two vertical dashed lines represent exon-triplets unchanged from the treatment.
In some aspects, analysis is performed on data derived from the assay to measure the magnitude of splicing to determine the amount of exons spliced into an mRNA transcript that is produced in the presence of Compound (I) relative to the amount in the absence of Compound (I) or presence of a negative control. In a preferred aspect, the method utilized is calculation of change in Percent Spliced In (ΔPSI). […] The ΔPSI value is derived from the formula: […]
The values for “a” and “b” represent the number of reads supporting the probability for potential inclusion or exclusion of an exon in an RNA transcript. The “a” value is derived from the number of reads within an exon triplet covering, in 5′ to 3′ order: the last few bases (>1 nucleotide) of an upstream exon operably linked to the first few bases (>1 nucleotide) of a middle exon. The “b” value is derived from the number of reads within an exon triplet covering, in 5′ to 3′ order: the last few bases (>1 nucleotide) of the middle exon operably linked to the first few bases (>1 nucleotide) of a downstream exon. The number of reads will indicate whether the splice junction of a middle exon has been identified as potentially having a CNN Motif(s) by the CNN Model described herein, wherein the inclusion or exclusion of the middle exon may be modulated in the presence of Compound (I) to produce one or more mature RNA isoforms from the gene transcript. The value for “c” represents the number of reads supporting the exclusion of the middle exon.
The effect on splicing modulation and corresponding splice differences toward exon inclusion or exclusion was determined by counting the RNASeq reads covering two splice junctions of exon triplets (three consecutive exons: Exon U, Exon X, Exon D) and the corresponding intervening introns, then comparing the change in Percent Spliced In (ΔPSI or Δψ) of the middle exon (Exon X) after treatment (as shown in FIG. 2A)^52,53. 934 exon triplets were identified showing differential middle exon inclusion or exclusion in response to Compound (I) treatment. Of these, 254 were exon inclusion events (Δψ≥0.1 and FDR<0.1) and 680 were exon exclusion events (Δψ≤−0.1 and FDR<0.1) (as shown in FIG. 2B). […] The splicing results were evaluated by RT-PCR in independent replicate experiments, confirming all the calculated Δψ values. […]

[1] = NUTM2A-AS1 Exon 89067714-89067817
[2] = ORMDL1 Exon 190647740-190647849
[3] = OSBPL8 Exon 76853639-76853675, Intron1 76844760-76853638
[4] = OSBPL8 Exon 76853639-76853675, Intron1 76844769-76853638
[5] = OSER1-AS1 Exon 42846007-42846322
[6] = PACRGL Exon 20711306-20711396, Intron1 20706438-20711305
[7] = PACRGL Exon 20711306-20711396, Intron1 20709494-20711305

SMILES: Clc1nc(NCc2ccncc2)c2cc[nH]c2n1 [Compound (I), 2-chloro-N-(pyridin-4-ylmethyl)-7H-pyrrolo[2,3-d]pyrimidin-4-amine]
- T-PSI (NUTF2 Exon 67881181-67881359): 0.104
- ΔPSI (NUTF2 Exon 67881181-67881359): −0.003
- Effect [1]: Exc
- T-PSI [1]: 0.100
- ΔPSI [1]: −0.120
- Effect (OARD1 Exon 41036580-41036692): Exc
- T-PSI (OARD1 Exon 41036580-41036692): 0.563
- ΔPSI (OARD1 Exon 41036580-41036692): −0.267
- Effect (OCRL Exon 128718321-128718344): Inc
- T-PSI (OCRL Exon 128718321-128718344): 0.364
- ΔPSI (OCRL Exon 128718321-128718344): 0.260
- Effect (ODF2 Exon 131231462-131231632): Exc
- T-PSI (ODF2 Exon 131231462-131231632): 0.872
- ΔPSI (ODF2 Exon 131231462-131231632): −0.102
- Effect (ODF2L Exon 86822127-86822285): Exc
- T-PSI (ODF2L Exon 86822127-86822285): 0.514
- ΔPSI (ODF2L Exon 86822127-86822285): −0.272
- Effect (OFD1 Exon 13781864-13781974): Inc
- T-PSI (OFD1 Exon 13781864-13781974): 0.981
- ΔPSI (OFD1 Exon 13781864-13781974): 0.131
- Effect (OPN3 Exon 241767722-241767881): Unc
- T-PSI (OPN3 Exon 241767722-241767881): 0.437
- ΔPSI (OPN3 Exon 241767722-241767881): −0.004
- Effect (OPTN Exon 13150138-13150289): Inc
- T-PSI (OPTN Exon 13150138-13150289): 0.387
- ΔPSI (OPTN Exon 13150138-13150289): 0.176
- Effect (OPTN Exon 13150962-13151015): Exc
- T-PSI (OPTN Exon 13150962-13151015): 0.121
- ΔPSI (OPTN Exon 13150962-13151015): −0.220
- Effect [2]: Exc
- T-PSI [2]: 0.407
- ΔPSI [2]: −0.295
- Effect (OS9 Exon 58113882-58114046): Exc
- T-PSI (OS9 Exon 58113882-58114046): 0.344
- ΔPSI (OS9 Exon 58113882-58114046): −0.181
- Effect [3]: Inc
- T-PSI [3]: 0.296
- ΔPSI [3]: 0.200
- Effect [4]: Inc
- T-PSI [4]: 0.269
- ΔPSI [4]: 0.191
- Effect [5]: Unc
- T-PSI [5]: 0.153
- ΔPSI [5]: 0.000
- Effect (P4HA2 Exon 131562390-131562914): Unc
- T-PSI (P4HA2 Exon 131562390-131562914): 0.155
- ΔPSI (P4HA2 Exon 131562390-131562914): −0.007
- Effect (P4HA2 Exon 131562625-131562914): Unc
- T-PSI (P4HA2 Exon 131562625-131562914): 0.160
- ΔPSI (P4HA2 Exon 131562625-131562914): −0.007
- Effect (PACRGL Exon 20709426-20709493): Exc
- T-PSI (PACRGL Exon 20709426-20709493): 0.666
- ΔPSI (PACRGL Exon 20709426-20709493): −0.179
- Effect [6]: Exc
- T-PSI [6]: 0.462
- ΔPSI [6]: −0.305
- Effect [7]: Exc
- T-PSI [7]: 0.563
- ΔPSI [7]: −0.242
- Effect (PACRGL Exon 20726431-20726511): Exc
- T-PSI (PACRGL Exon 20726431-20726511): 0.095
- ΔPSI (PACRGL Exon 20726431-20726511): −0.120
- Effect (PAM Exon 102309820-102310140): Exc
- T-PSI (PAM Exon 102309820-102310140): 0.478
- ΔPSI (PAM Exon 102309820-102310140): −0.123
- Effect (PARD3 Exon 34625127-34625171): Unc
- T-PSI (PARD3 Exon 34625127-34625171): 0.805
- ΔPSI (PARD3 Exon 34625127-34625171): −0.003
- Effect (PARD3 Exon 34739245-34739376): Exc
- T-PSI (PARD3 Exon 34739245-34739376): 0.584
- ΔPSI (PARD3 Exon 34739245-34739376): −0.165
- Effect (PARL Exon 183551512-183551613): Exc
- T-PSI (PARL Exon 183551512-183551613): 0.819
- ΔPSI (PARL Exon 183551512-183551613): −0.118
- Effect (PARP6 Exon 72543186-72543295): Inc
- T-PSI (PARP6 Exon 72543186-72543295): 0.902
